Laboratory results published in patent US20240400596A1, “PLATINUM-BASED PHOTOINITIATOR AND PHOTOCROSSLINKER, THEIR USE FOR ADDUCT FORMATION” (City University of Hong Kong, priority 2023, published 2024).

Key:
[1] = Photolysis of Pt complexes in water under UV, by RP-HPLC; assay type: physicochemical; settings: 1 mM in water, 365 nm, 9.8 mW/cm^2, 10 min
Method: The photolysis of Pt complexes in test tubes was examined by reversed-phase high performance liquid chromatography (RP-HPLC). 1 mM Pt complexes were dissolved in water. Then the mixed solution was irradiated with UV light (365 nm, 9.8 mW/cm^2) for 10 min at room temperature, and the solution was examined by HPLC. The percentage of remained Pt complexes was obtained from the ratio of the peak area of Pt complexes upon irradiation to that of the intact Pt complexes.

[2] = Dark stability of cisPt(IV)-1, by HPLC; assay type: physicochemical; settings: in the dark for about 30 min, free or mixed with radical spin traps
Method: 1 mM cisPt(IV)-1 (Pt(IV) complex of Formula (IIa)) and cisplatin in water was mixed with 1 or 10 mM DMPO or TEMPO. The mixed solution was irradiated with UV or kept in the dark for 10 min. The solution was analyzed by HPLC. The Pt(I) adduct products were characterized by ESI-HRMS, and the acetate radical adduct was separated and characterized by proton NMR. For the study of photolysis rate, the solution was irradiated with UV (365 nm, 9.8 mW/cm^2) for 0.5, 1, 2, 3, 4, 5 and 10 min, with or without the radical spin trap and analyzed by HPLC. For the study of dark stability, the solution was incubated at room temperature in the dark for 30 min before examined by HPLC.

O=C1[O][Pt]2([NH][C@@H]3CCCC[C@H]3[NH]2)[O]C1=O [oxaliplatin]
percentage of intact Pt complex remaining upon irradiation [1]: 99%

CC(=O)[O][Pt]([NH2])([NH2])([Cl])([Cl])[O]C(C)=O [cisPt(IV)-1]
stability in the dark [2]: remained intact
